Values after ≈ are worked out from the molar mass of the structure shown.
How the values were obtained:
[1] = molecular target: S. aureus RNA polymerase core enzyme + S. aureus σA (Staphylococcus aureus, UniProt P47768+Q2G0N5); assay: Fluorescence-detected assay of inhibition of Staphylococcus aureus RNA polymerase; assay type: biochemical; settings: read-out: IC50 Sa RNAP
Experimental: (§1) Fluorescence-detected RNA polymerase assays with E. coli RNA polymerase were performed by a modification of the procedure of Kuhlman et al., 2004 (Kuhlman, P., Duff, H. & Galant, A. (2004) Anal. Biochem. 324, 183-190). Reaction mixtures contained (20 μl): 0-100 nM test compound, 75 nM E. coli RNA polymerase σ^70 holoenzyme, 20 nM 384 by DNA fragment containing the bacteriophage T4 N25 promoter, 100 μM ATP, 100 μM GTP, 100 μM UTP, 100 μM CTP, 50 mM Tris-HCl, pH 8.0, 100 mM KCl, 10 mM MgCl2, 1 mM DTT, 10 μg/ml bovine serum albumin, and 5.5% glycerol. Reaction components other than DNA and NTPs were pre-incubated for 10 mm at 37° C. Reactions were carried out by addition of DNA and incubation for 5 min at 37° C., followed by addition of NTPs and incubation for 60 min at 37° C. DNA was removed by addition of 1 μl 5 mM CaCl2 and 2 U DNaseI (Ambion, Inc.), followed by incubation for 90 min at 37° C. RNA was quantified by addition of 100 μl RiboGreen RNA Quantitation Reagent (Invitrogen, Inc.; 1:500 dilution in Tris-HCl, pH 8.0, 1 mM EDTA), followed by incubation for 10 min at 25° C., followed by measurement of fluorescence intensity [excitation wavelength=485 nm and emission wavelength=535 nm; QuantaMaster QMI spectrofluorometer (PTI, Inc.)]. IC50 was defined as the concentration of inhibitor resulting in 50% inhibition of RNA polymerase activity.
Fluorescence-detected RNA polymerase assays with S. aureus RNA polymerase were performed as in Example 17.1, using reaction mixtures containing (20 μl): 0-100 nM test compound, 75 nM S. aureus RNA polymerase core enzyme, 300 nM S. aureus σ^A, 20 nM 384 by DNA fragment containing the bacteriophage T4 N25 promoter, 100 μM ATP, 100 μM GTP, 100 μM UTP, 100 μM CTP, 40 mM Tris-HCl, pH 8.0, 80 mM NaCl, 5 mM MgCl2, 2.5 mM DTT, and 12.7% glycerol. IC50 was defined as the concentration of inhibitor resulting in 50% inhibition of RNA polymerase activity.

[2] = system: Escherichia coli D21f2tolC; assay: MIC, spiral gradient endpoint assay; settings: 16 h, read-out: MIC E. coli D21f2tolC
[3] = molecular target: E. coli RNA polymerase σ70 holoenzyme (Escherichia coli, UniProt P0A8T7+P0A8V2); assay: Fluorescence-detected assay of inhibition of Escherichia coli RNA polymerase; assay type: biochemical; settings: RiboGreen fluorescence, read-out: IC50 Ec RNAP
Sequence of E. coli RNA polymerase σ70 holoenzyme (P0A8V2 whole entry): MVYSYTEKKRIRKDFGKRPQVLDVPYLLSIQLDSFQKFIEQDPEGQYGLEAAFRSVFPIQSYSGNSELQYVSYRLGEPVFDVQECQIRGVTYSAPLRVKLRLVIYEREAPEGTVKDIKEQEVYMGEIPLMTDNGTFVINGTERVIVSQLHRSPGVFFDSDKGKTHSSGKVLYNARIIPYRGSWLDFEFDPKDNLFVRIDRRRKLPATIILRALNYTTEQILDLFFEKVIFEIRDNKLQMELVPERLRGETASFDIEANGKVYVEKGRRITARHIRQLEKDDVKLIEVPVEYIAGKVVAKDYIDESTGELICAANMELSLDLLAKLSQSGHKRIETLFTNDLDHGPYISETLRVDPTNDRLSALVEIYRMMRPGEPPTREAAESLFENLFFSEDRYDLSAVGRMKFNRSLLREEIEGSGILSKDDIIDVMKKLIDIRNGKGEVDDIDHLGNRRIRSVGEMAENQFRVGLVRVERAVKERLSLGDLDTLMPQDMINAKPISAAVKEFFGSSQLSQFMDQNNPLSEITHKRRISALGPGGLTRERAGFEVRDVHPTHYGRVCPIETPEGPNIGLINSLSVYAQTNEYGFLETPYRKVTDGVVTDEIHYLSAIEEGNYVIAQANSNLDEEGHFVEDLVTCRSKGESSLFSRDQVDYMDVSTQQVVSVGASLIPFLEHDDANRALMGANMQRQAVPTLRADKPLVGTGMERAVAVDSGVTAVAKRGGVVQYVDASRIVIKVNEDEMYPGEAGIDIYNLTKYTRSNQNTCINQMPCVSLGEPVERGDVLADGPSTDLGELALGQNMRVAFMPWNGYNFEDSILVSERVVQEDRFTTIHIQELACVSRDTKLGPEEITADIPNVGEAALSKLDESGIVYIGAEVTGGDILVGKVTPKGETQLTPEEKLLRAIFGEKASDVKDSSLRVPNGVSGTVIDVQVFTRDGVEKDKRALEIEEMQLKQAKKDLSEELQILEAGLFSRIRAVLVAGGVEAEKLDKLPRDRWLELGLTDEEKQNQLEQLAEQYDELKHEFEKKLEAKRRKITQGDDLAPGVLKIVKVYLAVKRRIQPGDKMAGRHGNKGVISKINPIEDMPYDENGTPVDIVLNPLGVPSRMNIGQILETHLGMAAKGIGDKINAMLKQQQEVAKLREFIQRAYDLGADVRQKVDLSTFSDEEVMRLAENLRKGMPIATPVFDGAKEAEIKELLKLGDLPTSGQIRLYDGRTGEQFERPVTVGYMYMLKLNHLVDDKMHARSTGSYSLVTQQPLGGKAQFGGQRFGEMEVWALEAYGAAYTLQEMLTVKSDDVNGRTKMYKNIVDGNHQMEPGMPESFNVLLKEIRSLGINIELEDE
Sequence of E. coli RNA polymerase σ70 holoenzyme (P0A8T7 whole entry): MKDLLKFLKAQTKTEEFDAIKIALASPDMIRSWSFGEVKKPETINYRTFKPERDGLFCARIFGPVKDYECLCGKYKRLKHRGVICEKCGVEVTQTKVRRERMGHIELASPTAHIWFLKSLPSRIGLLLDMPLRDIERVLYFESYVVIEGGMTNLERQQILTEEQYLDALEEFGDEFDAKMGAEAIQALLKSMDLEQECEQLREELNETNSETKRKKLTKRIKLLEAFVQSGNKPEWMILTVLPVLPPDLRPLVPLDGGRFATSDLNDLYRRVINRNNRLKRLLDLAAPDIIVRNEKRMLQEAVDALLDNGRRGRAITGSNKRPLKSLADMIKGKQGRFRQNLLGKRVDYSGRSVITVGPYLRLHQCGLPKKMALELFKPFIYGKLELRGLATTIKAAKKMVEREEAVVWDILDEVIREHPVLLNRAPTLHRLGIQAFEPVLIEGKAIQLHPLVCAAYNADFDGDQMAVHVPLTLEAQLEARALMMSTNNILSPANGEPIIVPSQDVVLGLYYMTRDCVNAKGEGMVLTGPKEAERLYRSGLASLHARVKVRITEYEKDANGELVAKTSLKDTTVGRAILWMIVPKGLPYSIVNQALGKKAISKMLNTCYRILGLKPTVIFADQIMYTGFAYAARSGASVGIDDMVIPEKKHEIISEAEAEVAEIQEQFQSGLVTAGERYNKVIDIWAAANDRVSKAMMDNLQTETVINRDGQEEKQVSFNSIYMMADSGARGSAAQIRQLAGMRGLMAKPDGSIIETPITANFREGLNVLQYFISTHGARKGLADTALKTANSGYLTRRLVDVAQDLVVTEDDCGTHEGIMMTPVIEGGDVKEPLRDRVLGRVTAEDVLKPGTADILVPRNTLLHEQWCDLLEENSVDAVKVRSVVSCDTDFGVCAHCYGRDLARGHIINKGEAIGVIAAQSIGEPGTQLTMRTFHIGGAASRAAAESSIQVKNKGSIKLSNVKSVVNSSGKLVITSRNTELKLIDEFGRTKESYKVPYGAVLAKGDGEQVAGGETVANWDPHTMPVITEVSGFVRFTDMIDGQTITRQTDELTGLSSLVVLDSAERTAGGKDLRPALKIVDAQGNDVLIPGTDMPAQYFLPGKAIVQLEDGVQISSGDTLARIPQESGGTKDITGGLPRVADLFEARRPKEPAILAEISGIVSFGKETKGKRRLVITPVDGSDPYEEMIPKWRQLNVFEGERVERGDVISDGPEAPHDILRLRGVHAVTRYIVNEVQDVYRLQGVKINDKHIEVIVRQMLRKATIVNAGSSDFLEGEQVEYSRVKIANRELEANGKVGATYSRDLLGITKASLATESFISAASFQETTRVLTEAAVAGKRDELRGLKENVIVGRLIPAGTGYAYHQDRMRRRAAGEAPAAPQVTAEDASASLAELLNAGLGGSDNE
Sequence of E. coli RNA polymerase σ70 holoenzyme (P0A7Z4 whole entry partner): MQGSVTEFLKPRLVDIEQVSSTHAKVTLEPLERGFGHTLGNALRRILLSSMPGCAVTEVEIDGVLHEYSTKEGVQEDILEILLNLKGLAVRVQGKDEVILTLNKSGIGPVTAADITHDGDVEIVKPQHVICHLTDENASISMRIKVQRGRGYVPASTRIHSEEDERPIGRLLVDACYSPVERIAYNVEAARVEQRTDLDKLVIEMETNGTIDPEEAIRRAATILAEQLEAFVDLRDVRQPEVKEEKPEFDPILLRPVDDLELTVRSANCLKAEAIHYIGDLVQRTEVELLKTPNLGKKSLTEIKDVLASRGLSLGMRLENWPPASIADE
Sequence of E. coli RNA polymerase σ70 holoenzyme (P0A800 whole entry partner): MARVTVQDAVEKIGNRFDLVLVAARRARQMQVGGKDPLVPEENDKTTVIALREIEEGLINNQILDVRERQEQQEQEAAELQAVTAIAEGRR
Sequence of E. coli RNA polymerase σ70 holoenzyme (P00579 whole entry partner): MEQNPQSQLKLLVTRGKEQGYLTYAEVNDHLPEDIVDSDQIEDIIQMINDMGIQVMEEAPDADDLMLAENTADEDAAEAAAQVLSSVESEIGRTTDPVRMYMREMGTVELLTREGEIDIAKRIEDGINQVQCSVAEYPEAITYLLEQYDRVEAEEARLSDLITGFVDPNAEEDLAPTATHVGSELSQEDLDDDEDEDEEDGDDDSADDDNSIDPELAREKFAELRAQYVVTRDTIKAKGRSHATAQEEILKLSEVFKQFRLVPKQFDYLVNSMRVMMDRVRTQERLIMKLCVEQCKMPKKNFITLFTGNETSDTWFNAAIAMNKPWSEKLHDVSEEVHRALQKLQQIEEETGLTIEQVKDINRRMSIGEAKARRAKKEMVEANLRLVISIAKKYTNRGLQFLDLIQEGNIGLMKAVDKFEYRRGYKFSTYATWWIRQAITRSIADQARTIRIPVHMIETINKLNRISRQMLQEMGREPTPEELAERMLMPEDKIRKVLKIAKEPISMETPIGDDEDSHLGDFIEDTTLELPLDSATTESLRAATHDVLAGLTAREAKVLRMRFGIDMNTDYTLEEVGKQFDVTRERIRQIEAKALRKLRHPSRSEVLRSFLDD
Experimental: as §1

[4] = molecular target: M tuberculosis RNA polymerase core enzyme + M. tuberculosis σA (Mycobacterium tuberculosis, UniProt P9WGY7+P9WGY9); assay: Fluorescence-detected assay of inhibition of Mycobacterium tuberculosis RNA polymerase; assay type: biochemical; settings: read-out: IC50 Mt RNAP
Experimental: as §1
Fluorescence-detected RNA polymerase assays with M tuberculosis RNA polymerase were performed as in Example 17.1, using reaction mixtures containing (20 μl): 0-100 nM test compound, 75 nM M tuberculosis RNA polymerase core enzyme, 300 nM M. tuberculosis σ^A, 20 nM 384 by DNA fragment containing the bacteriophage T4 N25 promoter, 100 μM ATP, 100 μM GTP, 100 μM UTP, 100 μM CTP, 40 mM Tris-HCl, pH 8.0, 80 mM NaCl, 5 mM MgCl2, 2.5 mM DTT, and 12.7% glycerol. IC50 was defined as the concentration of inhibitor resulting in 50% inhibition of RNA polymerase activity.

[5] = system: Enterococcus faecalis ATCC 19433; assay: MIC, spiral gradient endpoint assay; settings: ATCC19433, 16 h, read-out: MIC E. faecalis 19433
[6] = system: Staphylococcus aureus ATCC 12600; assay: MIC, spiral gradient endpoint assay; settings: ATCC12600, 16 h, read-out: MIC S. aureus 12600
[7] = system: Mycobacterium tuberculosis H37Rv; assay: MIC, microplate Alamar Blue assay; settings: read-out: MIC M. tuberculosis H37Rv
H. influenzae 49247 = assay: MIC, spiral gradient endpoint assay (GC II agar, 5% CO2); settings: for MIC: Haemophilus influenzae, 49247, read-out: MIC H. influenzae 49247
[8] = system: Bacillus anthracis Vollum 1B; assay: microbe, parasite or virus in culture; assay type: cell-based; settings: VOLLUM1B, read-out: MIC B. anthracis Vollum-1b
[9] = system: Haemophilus influenzae ATCC 33391; assay: MIC, spiral gradient endpoint assay (GC II agar, 5% CO2); settings: ATCC33391, read-out: MIC H. influenzae 33391
[10] = system: Moraxella catarrhalis ATCC 25238; assay: as above; settings: ATCC25238, read-out: MIC M. catarrhalis 25238
[11] = system: Francisella tularensis SCHU4; assay: microbe, parasite or virus in culture; assay type: cell-based; settings: SCHU4, read-out: MIC F. tularensis SCHU4
Burkholderia mallei CHN7 = assay: microbe, parasite or virus in culture; assay type: cell-based; settings: CHN7, read-out: MIC B. mallei CHN7

Compound	IC50 [1]	MIC [2]	IC50 [3]	IC50 [4]	MIC [5]	MIC [6]	MIC [7]	MIC (H. influenzae 49247)	MIC [8]	MIC [9]	MIC [10]	MIC [11]	MIC (Burkholderia mallei CHN7)	MIC50 (H. influenzae 49247; Haemophilus influenzae, 49247, read-out: MIC50 H. influenzae 49247)
O=C(CCc1ccccc1C(F)(F)F)c1c(O)cc(O)cc1O [0MTK31, 3-(2-(trifluoromethyl)phenyl)propanoyl-phloroglucinol]	4.8 µM	6 µg/mL (≈ 18.4 µM)	1.9 µM	3.5 µM	22 µg/mL (≈ 67.4 µM)	14 µg/mL (≈ 42.9 µM)	–	–	–	–	–	–	–	–
COc1cccc(CCC(=O)c2c(O)cc(O)cc2O)c1 [OMTK15, 3-(3-methoxyphenyl)propanoyl-phloroglucinol]	7.2 µM	12 µg/mL (≈ 41.6 µM)	3 µM	3 µM	> 40 µg/mL	> 40 µg/mL	50 µg/mL (≈ 173 µM)	> 40 µg/mL	25 µg/mL (≈ 86.7 µM)	> 40 µg/mL	> 40 µg/mL	12.5 µg/mL (≈ 43.4 µM)	> 50 µg/mL	–
CC(C)c1ccc(CCC(=O)c2c(O)cc(O)cc2O)cc1 [0MTK27, 3-(4-isopropylphenyl)propanoyl-phloroglucinol]	5.4 µM	4.3 µg/mL (≈ 14.3 µM)	2.3 µM	4.9 µM	16 µg/mL (≈ 53.3 µM)	9.8 µg/mL (≈ 32.6 µM)	–	–	–	–	–	–	–	–
O=C(CCc1ccc(Br)cc1)c1c(O)cc(O)cc1O [OMTK22, 3-(4-bromophenyl)propanoyl-phloroglucinol]	3.7 µM	5 µg/mL (≈ 14.8 µM)	1.3 µM	1.7 µM	22 µg/mL (≈ 65.2 µM)	10 µg/mL (≈ 29.7 µM)	–	–	–	–	–	–	–	–
O=C(CCc1ccc(Cl)cc1)c1c(O)cc(O)cc1O [0MTK13, 3-(4-chlorophenyl)propanoyl-phloroglucinol]	4.3 µM	2.7 µg/mL (≈ 9.22 µM)	1.1 µM	2.3 µM	11 µg/mL (≈ 37.6 µM)	4 µg/mL (≈ 13.7 µM)	25 µg/mL (≈ 85.4 µM)	32 µg/mL (≈ 109 µM)	6.25 µg/mL (≈ 21.4 µM)	32 µg/mL (≈ 109 µM)	32 µg/mL (≈ 109 µM)	3.12 µg/mL (≈ 10.7 µM)	12.5 µg/mL (≈ 42.7 µM)	–
O=C(CCc1ccc(F)cc1)c1c(O)cc(O)cc1O [OMTK21, 3-(4-fluorophenyl)propanoyl-phloroglucinol]	7.2 µM	10 µg/mL (≈ 36.2 µM)	2.4 µM	4.4 µM	> 40 µg/mL	> 40 µg/mL	–	–	–	–	–	–	–	–
O=C(CCc1ccc(C(F)(F)F)cc1C(F)(F)F)c1c(O)cc(O)cc1O [0MTK32, 3-(2,4-bis(trifluoromethyl)phenyl)propanoyl-phloroglucinol]	3.7 µM	2.2 µg/mL (≈ 5.58 µM)	2 µM	3.3 µM	6.6 µg/mL (≈ 16.7 µM)	3.6 µg/mL (≈ 9.13 µM)	–	–	–	–	–	–	–	–
Cc1cc(F)ccc1CCC(=O)c1c(O)cc(O)cc1O [0MTK30, 3-(4-fluoro-2-methylphenyl)propanoyl-phloroglucinol]	4.1 µM	7 µg/mL (≈ 24.1 µM)	1.8 µM	3.7 µM	26 µg/mL (≈ 89.6 µM)	16 µg/mL (≈ 55.1 µM)	–	–	–	–	–	–	–	–
CCc1ccc(CCC(=O)c2c(O)cc(O)cc2O)cc1 [0MTK26, 3-(4-ethylphenyl)propanoyl-phloroglucinol]	5.4 µM	6.2 µg/mL (≈ 21.7 µM)	1.5 µM	3.6 µM	36 µg/mL (≈ 126 µM)	12.5 µg/mL (≈ 43.7 µM)	–	–	–	–	–	–	–	–
O=C(CCc1ccccc1Cl)c1c(O)cc(O)cc1O [0MTK11, 3-(2-chlorophenyl)propanoyl-phloroglucinol]	11 µM	8 µg/mL (≈ 27.3 µM)	3.5 µM	2.5 µM	> 40 µg/mL	16 µg/mL (≈ 54.7 µM)	> 50 µg/mL	–	6.25 µg/mL (≈ 21.4 µM)	> 40 µg/mL	> 40 µg/mL	3.12 µg/mL (≈ 10.7 µM)	50 µg/mL (≈ 171 µM)	35 µg/mL (≈ 120 µM)
O=C(CCc1cccc(Cl)c1)c1c(O)cc(O)cc1O [0MTK12, 3-(3-chlorophenyl)propanoyl-phloroglucinol]	9 µM	6 µg/mL (≈ 20.5 µM)	2.6 µM	4.8 µM	32 µg/mL (≈ 109 µM)	16 µg/mL (≈ 54.7 µM)	50 µg/mL (≈ 171 µM)	> 40 µg/mL	12.5 µg/mL (≈ 42.7 µM)	> 40 µg/mL	> 40 µg/mL	3.12 µg/mL (≈ 10.7 µM)	50 µg/mL (≈ 171 µM)	–
Cc1ccccc1CCC(=O)c1c(O)cc(O)cc1O [OMTK18, 3-(2-methylphenyl)propanoyl-phloroglucinol]	7.9 µM	11 µg/mL (≈ 40.4 µM)	2.7 µM	3.9 µM	> 40 µg/mL	> 40 µg/mL	–	–	–	–	–	–	–	–
O=C(CCc1ccc(C(F)(F)F)cc1)c1c(O)cc(O)cc1O [OMTK23, 3-(4-trifluoromethylphenyl)propanoyl-phloroglucinol]	4.8 µM	5 µg/mL (≈ 15.3 µM)	1.6 µM	2.3 µM	25 µg/mL (≈ 76.6 µM)	12 µg/mL (≈ 36.8 µM)	–	–	–	–	–	–	–	–
CC(C)(C)c1ccc(CCC(=O)c2c(O)cc(O)cc2O)cc1 [0MTK28, 3-((4-tert-butyl)phenyl)propanoyl-phloroglucinol]	6.4 µM	3 µg/mL (≈ 9.54 µM)	2.7 µM	4.6 µM	11 µg/mL (≈ 35 µM)	6.9 µg/mL (≈ 21.9 µM)	–	–	–	–	–	–	–	–

Reference: patent US9517994B2, “Antibacterial agents: phloroglucinol derivatives” (Rutgers, the State University of New Jersey, priority 2012, dated 2016)
